Calls of active or inactive are those of the source.
How the values were obtained:
BJ = assay: cells; format: functional, cell-based; conditions: Homo sapiens
[1] = cytotoxicity toward DRD oncogenic fibroblasts, dose response, cell-based, non-viral oncogenic, luminescence (AID 1934); format: functional; conditions: Homo sapiens
[2] = biological target: Sphingosine 1-phosphate receptor 1 (Homo sapiens, UniProt P21453); format: functional;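 further: Tango beta-arrestin reporter U2OS cells stimulated with S1P near its EC80; inhibitor potency meaning antagonism of receptor activation by the natural agonist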
Sequence of Sphingosine 1-phosphate receptor 1 (P21453 whole entry): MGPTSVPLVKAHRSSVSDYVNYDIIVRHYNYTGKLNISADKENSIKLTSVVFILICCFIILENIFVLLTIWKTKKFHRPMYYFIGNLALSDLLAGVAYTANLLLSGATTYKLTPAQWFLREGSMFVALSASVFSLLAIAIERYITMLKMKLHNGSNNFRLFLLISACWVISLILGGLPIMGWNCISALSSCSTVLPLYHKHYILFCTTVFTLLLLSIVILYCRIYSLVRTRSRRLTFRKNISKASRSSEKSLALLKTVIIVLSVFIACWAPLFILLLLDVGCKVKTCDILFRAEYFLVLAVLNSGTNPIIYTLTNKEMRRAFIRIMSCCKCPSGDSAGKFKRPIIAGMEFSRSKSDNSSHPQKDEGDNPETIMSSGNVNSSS

[3] = HepG2 cell cytotoxicity, dose response, cytotoxicity control for Shn3 inhibitor project, CellTiter-Glo, cherry-picked (AID 624134); format: functional, cell-based
Vero = assay: cells; format: functional, cell-based; conditions: Chlorocebus sabaeus
Caspase-3 = biological target: T1, Caspase-3 (Homo sapiens, UniProt P42574); assay: SAR Analysis of small molecule inhibitors of Sentrin-specific proteases (SENPs) using a Caspase-3 Selectivity assay. [Related pubchem assays (depositor defined):AID2540, AID2599, AID434973, AID489001]; format: functional
T1 sequence (P42574 whole entry): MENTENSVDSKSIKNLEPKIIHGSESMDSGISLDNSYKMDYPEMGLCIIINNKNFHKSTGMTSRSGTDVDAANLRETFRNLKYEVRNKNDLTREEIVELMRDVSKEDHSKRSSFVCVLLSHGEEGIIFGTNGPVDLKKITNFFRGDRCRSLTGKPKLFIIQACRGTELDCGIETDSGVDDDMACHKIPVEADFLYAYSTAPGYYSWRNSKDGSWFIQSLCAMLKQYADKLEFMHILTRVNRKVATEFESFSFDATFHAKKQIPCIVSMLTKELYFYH

[4] = biological target: T2, Sentrin-specific protease 7 (Homo sapiens, UniProt Q9BQF6); assay: SENP7 protease inhibitors, SAR follow-up, biochemical, luminescence (AID 504497); format: functional
T2 sequence (Q9BQF6 whole entry): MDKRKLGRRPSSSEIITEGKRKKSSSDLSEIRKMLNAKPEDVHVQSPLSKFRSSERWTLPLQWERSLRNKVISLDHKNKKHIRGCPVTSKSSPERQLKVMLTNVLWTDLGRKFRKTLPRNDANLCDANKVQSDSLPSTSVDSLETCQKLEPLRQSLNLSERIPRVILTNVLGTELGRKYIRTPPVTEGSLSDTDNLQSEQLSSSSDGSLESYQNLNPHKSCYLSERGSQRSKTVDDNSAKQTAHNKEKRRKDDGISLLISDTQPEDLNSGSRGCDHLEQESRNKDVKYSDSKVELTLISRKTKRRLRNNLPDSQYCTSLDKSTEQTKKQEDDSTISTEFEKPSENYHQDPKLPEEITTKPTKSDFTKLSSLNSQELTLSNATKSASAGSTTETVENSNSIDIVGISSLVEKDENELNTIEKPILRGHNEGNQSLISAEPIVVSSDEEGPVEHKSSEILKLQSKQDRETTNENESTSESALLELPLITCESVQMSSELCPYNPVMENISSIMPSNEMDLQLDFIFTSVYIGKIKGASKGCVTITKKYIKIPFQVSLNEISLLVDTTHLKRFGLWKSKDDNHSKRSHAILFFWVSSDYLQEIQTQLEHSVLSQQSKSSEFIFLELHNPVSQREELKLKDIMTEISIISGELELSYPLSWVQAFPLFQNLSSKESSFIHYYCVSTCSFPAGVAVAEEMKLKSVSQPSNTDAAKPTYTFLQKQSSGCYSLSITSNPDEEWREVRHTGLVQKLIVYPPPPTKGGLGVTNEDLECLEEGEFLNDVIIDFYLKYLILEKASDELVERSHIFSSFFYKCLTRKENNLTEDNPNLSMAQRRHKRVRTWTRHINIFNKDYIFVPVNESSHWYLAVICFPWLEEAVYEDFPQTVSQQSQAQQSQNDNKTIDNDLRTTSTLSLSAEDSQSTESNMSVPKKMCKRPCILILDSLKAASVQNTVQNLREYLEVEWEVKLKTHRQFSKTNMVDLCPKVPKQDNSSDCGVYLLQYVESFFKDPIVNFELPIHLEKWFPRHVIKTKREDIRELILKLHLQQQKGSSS

[5] = biological target: T3, Type-1 angiotensin II receptor (Homo sapiens, UniProt P30556); assay: AT1 receptor antagonists, dose response, selectivity assay for APJ receptor antagonist project, cell-based, uHTS hits (AID 463214); format: functional;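 further: antagonist potency against angiotensin II stimulated AT1 response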
T3 sequence (P30556 whole entry): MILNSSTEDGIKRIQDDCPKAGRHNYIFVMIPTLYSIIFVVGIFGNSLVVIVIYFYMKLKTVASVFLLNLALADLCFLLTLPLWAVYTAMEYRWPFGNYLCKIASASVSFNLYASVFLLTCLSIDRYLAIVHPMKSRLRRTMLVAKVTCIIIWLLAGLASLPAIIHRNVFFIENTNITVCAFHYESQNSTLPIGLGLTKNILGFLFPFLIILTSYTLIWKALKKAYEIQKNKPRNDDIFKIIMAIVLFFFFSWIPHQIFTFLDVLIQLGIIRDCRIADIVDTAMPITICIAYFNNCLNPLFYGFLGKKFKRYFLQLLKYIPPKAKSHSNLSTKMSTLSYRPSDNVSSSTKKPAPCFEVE

[6] = biological target: Potassium voltage-gated channel subfamily KQT member 2 (Rattus norvegicus, UniProt O88943, W236L); assay: KCNQ2 channel potentiators, dose response, mechanism study for KCNQ2 potentiator project, cell-based, automated electrophysiology (AID 2603); format: functional
Sequence of Potassium voltage-gated channel subfamily KQT member 2 (O88943 whole entry W236L): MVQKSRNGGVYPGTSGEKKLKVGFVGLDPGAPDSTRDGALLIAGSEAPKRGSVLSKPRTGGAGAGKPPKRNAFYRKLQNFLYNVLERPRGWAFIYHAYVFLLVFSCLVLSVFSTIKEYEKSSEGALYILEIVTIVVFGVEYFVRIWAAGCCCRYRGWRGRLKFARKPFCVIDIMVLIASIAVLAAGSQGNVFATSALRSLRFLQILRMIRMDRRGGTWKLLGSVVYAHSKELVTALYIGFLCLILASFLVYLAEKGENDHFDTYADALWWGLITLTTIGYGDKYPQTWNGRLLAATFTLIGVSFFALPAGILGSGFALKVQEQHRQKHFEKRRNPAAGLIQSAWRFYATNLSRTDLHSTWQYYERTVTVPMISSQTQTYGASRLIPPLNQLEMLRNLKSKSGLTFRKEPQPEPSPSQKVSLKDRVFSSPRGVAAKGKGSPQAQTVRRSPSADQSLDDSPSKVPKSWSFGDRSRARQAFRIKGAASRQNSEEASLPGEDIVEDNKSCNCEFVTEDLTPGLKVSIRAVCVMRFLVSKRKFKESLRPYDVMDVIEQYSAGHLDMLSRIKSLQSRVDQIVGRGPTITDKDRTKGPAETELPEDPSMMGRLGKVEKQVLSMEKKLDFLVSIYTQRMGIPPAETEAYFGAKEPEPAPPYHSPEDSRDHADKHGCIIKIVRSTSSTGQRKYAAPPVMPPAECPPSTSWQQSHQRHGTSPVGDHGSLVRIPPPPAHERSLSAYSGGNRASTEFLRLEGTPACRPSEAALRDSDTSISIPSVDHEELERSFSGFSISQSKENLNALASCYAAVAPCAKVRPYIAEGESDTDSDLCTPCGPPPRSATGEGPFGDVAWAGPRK

For `COC(=O)C[C@]1(C(=O)OC)CN(C#N)N(c2ccc(Cl)cc2)C12c1ccccc1-c1ccccc12`, the EC50 (BJ) was 2.7 µM (active), the EC50 [1] was 3.62 µM (active) and the IC50 [2] was 5.39 µM (active). For the same compound, the AC50 [3] was 4.76 µM (active).

For `O=C(Nc1ccc(C#Cc2ccccc2)cc1)C1CC1`, the IC50 (Vero) was > 12.5 µM (active), the IC50 (Caspase-3) was 19.7 µM (active) and the IC50 [4] was 3.28 µM (active). For the same compound, the IC50 (cells) was 7.09 µM (active).

With `CCCCn1c(NC(=O)c2ccco2)c(C(=O)OCC)c2nc3ccccc3nc21` the IC50 [5] was 10.4 µM (active).

For `Cc1ccccc1NC1=C/C(=N\S(=O)(=O)c2ccc(C(=O)O)cc2)c2ccccc2C1=O`, the EC50 [6] was 9.51 µM (active).
